Laboratory results as given in patent US5837706A, “Drug for neuroprotection” (Daiichi Pharmaceutical Co., Ltd., priority 1993, dated 1998).
“Also recorded” adds a separate entry of the source. Where two headings read alike, the source gives them in different places.

Tests used:
fodrin [1] = assay: Change in fodrin in cerebral ischemic model (western blotting); type: in vivo; settings: cerebral ischemic model of gerbil; 100 mg/kg 1 hour before ischemia, evaluated 48 hours thereafter
Description: Both common carotid arteries of a gerbil were ligated for 10 minutes to thereby prepare a cerebral ischemic model. Four, 24 and 48 hours after allowing the blood stream to flow again, the hippocampus was taken out and homogenized with 20 mM tris buffer (pH 7.5) containing 0.1 mM leupeptin, 0.1 mM PMSF and […]. After centrifuging at 10,000×g for 30 minutes, proteins in the supernatant were separated by SDS-PAGE. Then fodrin and breakdown products thereof were identified by the same method as the one described in Pharmacological Example 3. The compound B (100 mg/kg) was administered 1 hour before cerebral ischemia and evaluated 48 hours thereafter. Fodrin breakdown products were little detected from the normal gerbil. In the case of the cerebral ischemic model, on the other hand, breakdown products appeared 4 hours after allowing the blood stream to flow again and similar bands were observed after 48 hours.

[2] = tested on: hippocampal CA1 neuronal cells; assay: Change in hippocampal neuronal cells in cerebral ischemic model; type: in vivo, gerbil; settings: for Hippocampal Neuronal Cell Density: 100 mg/kg orally 1 hour after 5 min ischemia, CA1, 7 days, n = 9-10, normal 194 ± 6.1, ischemia 9 ± 1.3; for protective effect on neuronal cells / suppression of neuronal cell death: cerebral ischemia, gerbil, 100 mg/kg orally 1 hour after ischemia
Description: When transient cerebral ischemia was loaded to a gerbil, necrosis of hippocampal cells was observed from several days thereafter. This change is called delayed neuronal cell death. Cerebral ischemia was loaded to a gerbil for 5 minutes. Seven days thereafter, the animal was sacrificed and the neuronal cells remaining in the hippocampal CA1 region were counted. Most of the hippocampal CA1 cells died due to the cerebral ischemia.

[3] = target: T1, calmodulin-depending phosphodiesterase (CaM-PDE) / calmodulin (Bos taurus, UniProt P62157); assay: Calmodulin inhibition effect: inhibition of calmodulin-depending phosphodiesterase (PDE); type: biochemical, bovine
T1 construct: calmodulin (CaM, from bovine brain); from tissue; host or cells: bovine brain
Description: The calmodulin inhibition effect of a compound was evaluated by using its effect of inhibiting calmodulin-depending phosphodiesterase (PDE) as an index. […] After ceasing the reaction by heating in a boiling water bath for 1 minute, snake venom (1 mg/ml) was added thereto and the resulting mixture was reacted at 30° C. for 10 minutes to thereby convert 5'-GMP formed by PDE into guanosine. Next, the unreacted cGMP was adsorbed by an ion exchange resin (AGI-X8). Subsequently, the mixture was centrifuged and the radioactivity of the supernatant was measured with a liquid scintillation counter.

hippocampal calmodulin [4] = assay: Effect on intracellular localization of hippocampal calmodulin in cerebral ischemic gerbil (radioimmunoassay); type: in vivo; settings: for increase in the calmodulin content in the membrane fraction / translocation of calmodulin after cerebral ischemia: cerebral ischemic model of gerbil, 100 mg/kg orally, 24 hours after ischemia
Description: Both common carotid arteries of a gerbil were ligated for 10 minutes. One hour and 24 hours after allowing the blood stream to flow again, the calmodulin content in the hippocampus was determined by radioimmunoassay. The compound A (100 mg/kg) was suspended in 0.5% methylcellulose and orally administered to the animal 1 hour before cerebral ischemia.

fodrin [5] = settings: Seubert et al., Synapse 1987; cited from earlier work
hippocampal calmodulin [6] = assay: Effect on intracellular localization of hippocampal calmodulin in hippocampal homogenate (radioimmunoassay); type: biochemical, gerbil; settings: for Calmodulin Content, Membrane Fraction / Calmodulin Content, Soluble Fraction: hippocampal homogenate, 37° C., 30 minutes, 1 mM CaCl2, or 1 mM CaCl2 + 10 μM compound A; for Calmodulin Content, Membrane Fraction / Calmodulin Content, Soluble Fraction / effect on the behavior of calmodulin in the presence of EGTA: 1 mM EGTA; for Calmodulin Content, Membrane Fraction: control 8.8 ± 0.25; for Calmodulin Content, Soluble Fraction: control 4.5 ± 0.13
Description: The hippocampus of a gerbil was homogenized with 20 mM tris buffer (pH 7.5) containing 0.1 mM leupeptin, 0.1 mM PMSF and 0.01 mg/ml of aprotinin. […] The precipitate was solubilized with 0.1% Lubrol PX. Then the calmodulin contents in the soluble fraction and the membrane fraction were determined by radioimmunoassay.

fodrin [7] = assay: Effect of calcium ion on breakdown of cytoskeltal protein fodrin in hippocampal homogenate (western blotting); type: biochemical, gerbil; settings: 1 mM CaCl2 or 1 mM EGTA, 37° C., 1 hour
Description: The hippocampus taken out from a gerbil was homogenized with 20 mM tris buffer (pH 7.5). […] Then the homogenate was centrifuged at 10,000×g for 30 minutes. After separating proteins contained in the supernatant fraction by SDS-PAGE, the proteins were identified by western blotting with the use of a fodrin antibody (rabbit anti α-Spectrin) and a calmodulin antibody (sheep anti-bovine calmodulin).

[8] = tested on: delayed neuronal cell death; settings: Kogure et al. 1990; cited from earlier work
[9] = 100 mg/kg orally 1 hour before 10 min ischemia, 24 hrs after ischemia, n = 10-12

SMILES | fodrin breakdown products due to cerebral ischemia (fodrin [1]) | Hippocampal Neuronal Cell Density [2] | protective effect on neuronal cells / suppression of neuronal cell death [2] | selectivity for calmodulin [3] | increase in the calmodulin content in the membrane fraction / translocation of calmodulin after cerebral ischemia (hippocampal calmodulin [4]) | Calmodulin Content, Membrane Fraction (hippocampal calmodulin [6]) | stable breakdown products of fodrin (140-150 kDa) (fodrin [7]) | Calmodulin Content, Soluble Fraction (hippocampal calmodulin [6]) | effect on the behavior of calmodulin in the presence of EGTA (hippocampal calmodulin [6]) | further results
COc1cc2c(CCN3CCN(c4cccc(Cl)c4C)CC3)nn(Cc3c[nH]cn3)c2cc1OC [compound B] | scarcely detected; also recorded: suppress | 131 ± 21.2 /mm | a protective effect on neuronal cells was clearly observed; also recorded: suppress neuronal cell death | high selectivity for calmodulin | suppress |  |  |  |  | IC50 ([3]; pH 7.5, 1 mM CaCl2, 30° C., 10 minutes): 5.46 µM
CN1CCN(CCCN2c3ccccc3Sc3ccc(C(F)(F)F)cc32)CC1 [trifluoropelazine] |  |  |  |  |  |  |  |  |  | breakdown of fodrin (fodrin [5]): suppressed
[Ca+2].[Cl-].[Cl-] [CaCl2, calcium chloride, reference compound] |  |  |  |  |  | 11.4 ± 0.34 μg/mg protein | bands of the breakdown products appeared |  |  | calmodulin content in the membrane fraction, change in words (hippocampal calmodulin [6]; 1 mM calcium chloride, compared with EGTA): increased
O=C(O)CN(CCOCCOCCN(CC(=O)O)CC(=O)O)CC(=O)O [EGTA, ethylenebis(oxyethylenenitrylo)tetraacetic acid, reference compound] |  |  |  |  |  | 7.6 ± 0.40 μg/mg protein | little observed | 12.3 ± 0.77 μg/mg protein |  | 
NCCCCCCNS(=O)(=O)c1cccc2c(Cl)cccc12 [W-7, reference compound] |  |  |  |  |  |  |  |  | no effect | effect of suppressing delayed neuronal cell death [8]: no effect
COc1ccc(Cn2nc(CCN3CCN(c4cccc(Cl)c4C)CC3)c3cc(OC)c(OC)cc32)cc1OC [compound A] | suppress | 98 ± 22.0 /mm | a protective effect on neuronal cells was clearly observed; also recorded: suppress neuronal cell death | high selectivity for calmodulin | significantly suppressed; also recorded: suppress | 7.1 ± 0.50 μg/mg protein |  | 1.75 ± 0.52 μg/mg protein | no effect | change in calmodulin content / localization caused by calcium ion (hippocampal calmodulin [6]; 10 μM compound A, 1 mM calcium chloride, in vitro): significantly suppressed; IC50 [3]: 3.93 µM; Calmodulin Content, Cytoplasm Fraction (hippocampal calmodulin [4]; [9]): 1.3 ± 0.08 μg/mg protein; Calmodulin Content, Membrane Fraction (hippocampal calmodulin [4]; [9]): 1.4 ± 0.05 μg/mg protein
